Experimental data from patent publication US11459358B2, “Substances for targeting various selected organs or tissues” (BioMarin Technologies B.V., priority 2016, dated 2022).
“Also recorded” adds a separate entry of the source.

Key:
[1] = test system: human cardiomyocytes; assay: Uptake of FITC-labeled peptides in human cardiomyocytes, fluorescence microscopy; assay type: cell-based; conditions: 2.25 μM FITC-labeled peptide
Experimental: Immortalized human cardiomyocytes (applied biological materials, Canada) were grown in Prigrow I medium supplemented with 10% FBS and 1% P/S in collagen coated flasks. Cells were plated in collagen coated glass slides in 6 wells plates and grown until confluence prior to experiments.
(§1) Fluorescently labeled peptides were labeled using fluorescein isothiocyanate (FITC) and were obtained from Pepscan (Lelystad, the Netherlands). The FITC-label was attached to an Ahx (6-aminohexanoic acid) spacer which was added to the N-terminal end of the peptide, the C-terminal part was amidated and peptides were made circular by disulfide cyclization. Peptides according to the invention had cysteine flanking moieties wherein the flanking moieties were directly adjacent to the targeting sequences SEQ ID NOs: 14-25.
(§2) Human control myotubes and primary human cardiomyocytes were washed 2 times with PBS and incubated with 2.25 μM of FITC-labeled peptides in serum free media for 3 h at 37° C. and 5% CO2. Cells were washed 3 times with PBS and fixed with cold methanol (−20° C.) for 5 min (human control myotubes) or 10 min (human cardiomyocytes). Subsequently the glass slides were shortly air dried, and embedded on microscope slides with Vectashield hard set with 4′,6-diamidino-2-phenylindole (DAPI) mounting media (Vector laboratories). After drying 30 min, slides were analyzed with fluorescence microscopy (Leica DM5500 B) using a CCD camera (Leica DFC 360 FX). Representative pictures are shown.
FITC-labeled peptides comprising SEQ ID NO:24 or SEQ ID NO: 25 were incubated at a dose of 2.25 μM, slides were imbedded in mounting media containing DAPI and analyzed with Leica microscopy using a CCD camera (Leica DFC 360 FX); Human control myotubes for 1 or 3 h (FIG. 3a) and human cardiomyocytes for 3 h (FIG. 3b).

[2] = test system: Human control myotubes; assay: Uptake of FITC-labeled peptides in human control myotubes, fluorescence microscopy; assay type: cell-based; conditions: 2.25 μM FITC-labeled peptide
Experimental: Human control myoblasts (Km155.c25 cells, (Zhu et al., 2007)) were grown in skeletal muscle cell growth medium (Promocell, C-23160) supplemented with an extra 15% FBS (from, Gibco, the Netherlands) and 50 μg/ml gentamicin (PAA Laboratories) in uncoated flasks until 70-80% confluence was reached. Cells were plated in a 6 wells plate with 0.5% gelatin coated glass slides (Sigma Aldrich, the Netherlands), at a density of 1×10^5 cells per well, 48 hours prior to differentiation. Reaching 90% confluence, medium was switched to differentiation medium (Dulbecco's medium (without phenol red) with 2% FBS, 50 μg/ml gentamicin, 2% glutamax and 1% glucose (all from Gibco-BRL, the Netherlands)). Cells were allowed to differentiate for 3-5d.
as §1
as §2, with “shown. […]” for “shown.”
The linear versions of the peptides comprising SEQ ID NO: 24 or SEQ ID NO: 25, in which the Cys residues were replaced with Ala residues, were labelled as described above and incubated with human control myotubes for 3 h (FIG. 3d).

Substance | fluorescence in the cells ([1]; 3 h) | fluorescence in the cells ([1]; 3 h, listed as SEQ ID NO:24) | fluorescence in the cells ([2]; 1 h) | fluorescence in the cells ([2]; 3 h) | fluorescence in the cells ([2]; 3 h, listed as SEQ ID NO:24) | fluorescence in the cells ([1]; 10 minutes) | fluorescence in the cells ([2]; 10 minutes)
SEQ ID NO: 24: FITC-Ahx N-terminal, C-terminal amide, disulfide-cyclized peptide with Cys residues flanking targeting sequence LNSLFGS (N-terminal FITC-Ahx, C-terminal amide, disulfide cyclized; Randomly generated peptide) | Brightest fluorescence | clear fluorescence throughout the cells and in the nuclei | clear fluorescence throughout the cells and in the nuclei | Brightest fluorescence | clear fluorescence throughout the cells and in the nuclei |  | 
SEQ ID NO: 25: FITC-Ahx N-terminal, C-terminal amide, disulfide-cyclized peptide with Cys residues flanking targeting sequence QLFPLFR (N-terminal FITC-Ahx, C-terminal amide, disulfide cyclized; Randomly generated peptide) | Brightest fluorescence; also recorded: clear fluorescence throughout the cells and in the nuclei |  | clear fluorescence throughout the cells and in the nuclei | Brightest fluorescence; also recorded: clear fluorescence throughout the cells and in the nuclei |  | positive fluorescence | positive fluorescence
